Source: US10358434B2, “2-(3-pyridinyl)-1H-benzimidazole derivative compound and medicament containing same” (NIHON MEDI-PHYSICS CO., LTD., priority 2014, dated 2019)
Where “and” joins values, the source holds several entries; their conditions need not be identical. Equal entries are not always repeated.

How the values were obtained:
human CYP11B1 = molecular target: T1, human CYP11B1 (Homo sapiens, UniProt P15538); test: Cortisol production inhibition in V79-B1 cells expressing human CYP11B1 (ELISA); type: cell-based; conditions: 11-deoxycortisol 100 nmol/L, 1 hour, cortisol by ELISA, mean or mean ± SD
T1 construct: expressed in transfected cells; host or cells: V79 cells (Chinese hamster lung-derived fibroblasts, from ECACC through DS Pharma Biomedical)
T1 sequence (P15538 25-503): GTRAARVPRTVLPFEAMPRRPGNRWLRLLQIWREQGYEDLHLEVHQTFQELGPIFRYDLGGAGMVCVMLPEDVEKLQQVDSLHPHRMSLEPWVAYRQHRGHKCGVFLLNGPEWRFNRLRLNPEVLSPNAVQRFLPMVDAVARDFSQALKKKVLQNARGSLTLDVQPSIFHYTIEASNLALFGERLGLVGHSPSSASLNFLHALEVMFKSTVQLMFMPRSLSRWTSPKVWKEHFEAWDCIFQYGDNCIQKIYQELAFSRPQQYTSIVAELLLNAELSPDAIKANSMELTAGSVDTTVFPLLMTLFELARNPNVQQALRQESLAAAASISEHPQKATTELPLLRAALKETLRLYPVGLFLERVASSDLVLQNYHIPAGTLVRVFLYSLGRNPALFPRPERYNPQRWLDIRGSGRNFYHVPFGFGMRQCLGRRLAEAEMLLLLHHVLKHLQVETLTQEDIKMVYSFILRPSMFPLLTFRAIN
Protocol: (§1) This inhibition experiment can be carried out by the following operations. Human CYP11B1 and human CYP11B2 are allowed to individually express in Chinese hamster lung-derived fibroblasts. Subsequently, 11-deoxycortisol is added to the cells expressing human CYP11B1 to a final concentration of 100 nmol/L, and corticosterone is added to the cells expressing human CYP11B2 to a final concentration of 100 nmol/L. At the same time, a target compound used as an analytical sample is added to each of the cells to a final concentration of 10^−4 to 10^4 nmol/L. Thereafter, the concentration of cortisol as a metabolite of CYP11B1 is measured in the cells expressing human CYP11B1 according to ELISA (Enzyme-Linked ImmunoSorbent Assay), and the concentration of aldosterone as a metabolite of CYP11B2 is measured in the cells expressing human CYP11B2 according to ELISA. Provided that the aldosterone concentration and the cortisol concentration without addition of any target compound as a sample are each set at 100%, an inhibition curve is produced, and then inhibitory activity (IC50) is calculated.
(§2) Chinese hamster lung-derived fibroblasts, V79 cells (acquired from ECACC (European Collection of Cell Cultures) through DS Pharma Biomedical), were allowed to express human CYP11B2, so as to produce V79-B2, and were also allowed to express human CYP11B1, so as to produce V79-B1. V79 cells were cultured in a DMEM medium (containing 4,500 mg/L D-glucose, L-glutamine, and 110 mg/L sodium pyruvate; manufactured by Life Technologies). V79-B2 or V79-B1 was inoculated on a microplate, and then cultured overnight. Thereafter, a mixed solution of corticosterone and a compound as a test target was added into a culture supernatant of V79-B2, and a mixed solution of 11-deoxycortisol and a compound as a test target was added into a culture supernatant of V79-B1. As a solvent for these mixed solutions, the aforementioned DMEM medium further containing 0.1 v/v % dimethyl sulfoxide was used. The concentration of corticosterone or 11-deoxycortisol was adjusted to be 100 nmol/L by addition of the solvent. As test target compounds, (R)-4-iodometomidate (IMTO), and Compounds 100, 200, 300, 400, 500, and 601 to 610 synthesized by methods shown in Examples 1, 3, 5, 6, 8, 10, 12, 14, 16, 18, 20, 22, 24, 26, and 28, respectively, were used. The aforementioned mixed solution was prepared such that the concentration of each compound was 10^−4 to 10^4 nmol/L in the mixed solution. One hour later, the culture supernatant of V79-B1 was recovered, and the concentration of cortisol as a metabolite of CYP11B1 was measured by ELISA (Enzyme-Linked ImmunoSorbent Assay). Moreover, four hours later, the culture supernatant of V79-B2 was recovered, and the concentration of aldosterone as a metabolite of CYP11B2 was measured by ELISA. Provided that the concentration of aldosterone or the concentration of cortisol obtained when none of IMTO and Compounds 100, 200, 300, 400 and 500 was added was defined as 100%, an inhibition curve was produced, and the inhibitory activity (IC50) of each compound was then calculated.
(§3) In Tables 5 and 6, the term “Selectivity factor” indicates a quotient of the mean value of IC50 for cortisol production inhibition divided by the mean value of IC50 for aldosterone production inhibition. In addition, the symbol “n” indicates the number of tests.

human CYP11B2 = molecular target: T2, human CYP11B2 (Homo sapiens, UniProt P19099); test: Aldosterone production inhibition in V79-B2 cells expressing human CYP11B2 (ELISA); type: cell-based; conditions: for IC50: V79-B2 cells, corticosterone 100 nmol/L, 4 hours, aldosterone by ELISA, mean or mean ± SD; for Selectivity factor: mean IC50 cortisol production inhibition divided by mean IC50 aldosterone production inhibition
T2 construct: expressed in transfected cells; host or cells: V79 cells (Chinese hamster lung-derived fibroblasts, from ECACC through DS Pharma Biomedical)
T2 sequence (P19099 25-503): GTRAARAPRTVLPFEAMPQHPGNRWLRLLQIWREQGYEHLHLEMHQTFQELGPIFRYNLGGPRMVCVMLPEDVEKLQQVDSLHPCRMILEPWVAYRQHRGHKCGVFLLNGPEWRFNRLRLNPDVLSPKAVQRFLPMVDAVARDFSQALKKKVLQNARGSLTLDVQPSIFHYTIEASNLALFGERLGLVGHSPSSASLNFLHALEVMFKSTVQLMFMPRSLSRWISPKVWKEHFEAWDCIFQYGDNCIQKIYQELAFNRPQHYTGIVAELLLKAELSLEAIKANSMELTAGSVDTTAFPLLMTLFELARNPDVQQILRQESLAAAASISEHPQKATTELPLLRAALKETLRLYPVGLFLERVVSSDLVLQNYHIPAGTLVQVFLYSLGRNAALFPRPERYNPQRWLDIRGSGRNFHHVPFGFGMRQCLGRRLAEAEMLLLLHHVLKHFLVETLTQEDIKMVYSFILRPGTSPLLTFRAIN
Protocol: as §1, §2, §3

FCCn1c(-c2cncc(Cn3ccnc3)c2)nc2cc(F)c(Cl)cc21 [Compound 100, 6-Chloro-5-fluoro-1-(2-fluoroethyl)-2-[5-(imidazol-1-ylmethyl)pyridin-3-yl]benzimidazole]
IC50 (human CYP11B1): 109 ± 15.8 nM | IC50 (human CYP11B2): 6.9 ± 2.87 nM | Selectivity factor (human CYP11B2): 15.8

FCCn1c(-c2cncc(Cn3ccnc3)c2)nc2cc(F)c(Br)cc21 [Compound 200, 6-Bromo-5-fluoro-1-(2-fluoroethyl)-2-[5-(imidazol-1-ylmethyl)pyridin-3-yl]benzimidazole]
IC50 (human CYP11B1): 142 nM | IC50 (human CYP11B2): 7.47 nM | Selectivity factor (human CYP11B2): 19.0

COC(=O)c1cncn1Cc1cncc(-c2nc3cc(F)c(Br)cc3n2CCO)c1 [Compound 300, 2-{6-Bromo-5-fluoro-2-[5-(5-methylcarboxylateimidazol-1-ylmethyl)pyridin-3-yl]benzimidazol-1-yl}ethanol]
IC50 (human CYP11B1): 19 nM | IC50 (human CYP11B2): 10.6 nM | Selectivity factor (human CYP11B2): 1.79

FCCn1c(-c2cncc(Cn3ccnc3)c2)nc2cc(F)c(I)cc21 [Compound 400, 5-Fluoro-1-(2-fluoroethyl)-2-[5-(imidazol-1-ylmethyl)pyridin-3-yl]-6-iodobenzimidazole]
IC50 (human CYP11B1): 345 nM | IC50 (human CYP11B2): 44.5 nM | Selectivity factor (human CYP11B2): 7.77

FCCCn1c(-c2cncc(Cn3ccnc3)c2)nc2cc(F)c(Cl)cc21 [Compound 500, 6-Chloro-5-fluoro-1-(3-fluoropropyl)-2-[5-(imidazol-1-ylmethyl)pyridin-3-yl]benzimidazole]
IC50 (human CYP11B1): 33.5 nM | IC50 (human CYP11B2): 3.94 nM | Selectivity factor (human CYP11B2): 8.51

Ic1ccc2nc(-c3cncc(Cn4ccnc4)c3)n(C3CC3)c2c1 [Compound 602, 1-Cyclopropyl-2-[3-(1H-imidazol-1-ylmethyl)pyridin-5-yl]-6-iodo-1H-benzimidazole]
IC50 (human CYP11B1): 44.5 nM | IC50 (human CYP11B2): 2.17 nM | Selectivity factor (human CYP11B2): 20.5

Ic1ccc2nc(-c3cncc(Cn4ccnn4)c3)n(C3CC3)c2c1 [Compound 603, 1-Cyclopropyl-2-[3-(1H-1,2,3-triazol-1-ylmethyl)pyridin-5-yl]-6-iodo-1H-benzimidazole]
IC50 (human CYP11B1): 296 nM | IC50 (human CYP11B2): 18.1 nM | Selectivity factor (human CYP11B2): 16.4

FCCn1c(-c2cncc(Cn3ccnc3)c2)nc2ccc(I)cc21 [Compound 604, 1-(2-Fluoroethyl)-2-[5-{(imidazol-1-yl)methyl}pyridin-3-yl]-6-iodobenzimidazole]
IC50 (human CYP11B1): 54 nM | IC50 (human CYP11B2): 4.54 nM | Selectivity factor (human CYP11B2): 11.9

Fc1cc2nc(-c3cncc(Cn4ccnc4)c3)n(Cc3ccc(I)cc3)c2cc1Cl [Compound 605, 6-Chloro-5-fluoro-1-(4-iodobenzyl)-2-[5-(1H-imidazol-1-ylmethyl)-3-pyridinyl]-1H-benzimidazole]
IC50 (human CYP11B1): 359 nM | IC50 (human CYP11B2): 204 nM | Selectivity factor (human CYP11B2): 1.76

CC(C)n1c(-c2cncc(Cn3ccnc3)c2)nc2ccc(I)cc21 [Compound 606, 2-[5-{(1H-imidazol-1-yl)methyl}pyridin-3-yl]-6-iodo-1-isopropyl-1H-benzo[d]imidazole]
IC50 (human CYP11B1): 368 nM | IC50 (human CYP11B2): 116 nM | Selectivity factor (human CYP11B2): 3.17

Cn1c(-c2cncc(Cn3ccnc3)c2)nc2ccc(I)cc21 [Compound 607, 2-[5-{(1H-imidazol-1-yl)methyl}pyridin-3-yl]-6-iodo-1-methyl-1H-benzo[d]imidazole]
IC50 (human CYP11B1): 7.07 nM | IC50 (human CYP11B2): 0.93 nM | Selectivity factor (human CYP11B2): 7.62

CCn1c(-c2cncc(Cn3ccnc3)c2)nc2ccc(I)cc21 [Compound 608, 2-[5-{(1H-imidazol-1-yl)methyl}pyridin-3-yl]-1-ethyl-6-iodo-1H-benzo[d]imidazole]
IC50 (human CYP11B1): 52.2 nM | IC50 (human CYP11B2): 6.58 nM | Selectivity factor (human CYP11B2): 7.93

COc1cc(I)cc2c1nc(-c1cncc(Cn3ccnc3)c1)n2C1CC1 [Compound 609, 1-Cyclopropyl-2-[5-(imidazol-1-ylmethyl)pyridin-3-yl]-6-iodo-4-methoxybenzimidazole]
IC50 (human CYP11B1): 15.5 nM | IC50 (human CYP11B2): 1.49 nM | Selectivity factor (human CYP11B2): 10.4

FCCn1c(-c2cncc(Cn3cncc3I)c2)nc2cc(F)c(Cl)cc21 [Compound 610, 6-Chloro-5-fluoro-1-(2-fluoroethyl)-2-{5-(5-iodo-1H-imidazol-1-ylmethyl)pyridin-3-yl}benzimidazole]
IC50 (human CYP11B1): 91 nM | IC50 (human CYP11B2): 9.81 nM | Selectivity factor (human CYP11B2): 9.27

COC(=O)c1cncn1[C@H](C)c1ccc(I)cc1 [IMTO, (R)-4-iodometomidate, reference compound]
IC50 (human CYP11B1): 0.22 nM and 0.25 nM | IC50 (human CYP11B2): 0.21 nM and 0.24 nM | Selectivity factor (human CYP11B2): 1.01 and 1.03

Methyl 1-[4-(1-cyclopropyl-6-iodo-1H-imidazobenzo-2-yl)-3-pyridinylmethyl)]-1H-imidazolecarboxylate [Compound 601]
IC50 (human CYP11B1): 37.8 nM | IC50 (human CYP11B2): 3.09 nM | Selectivity factor (human CYP11B2): 12.2
